The record followed here is patent publication US20050192299A1, “Method of treating or preventing hepatitis B virus” (priority 1992, published 2005).

Several values for one entry are separate records, joined by “and”; a condition that tells them apart may be missing. Identical values can stand only once. Like-named read-outs stand apart in the source and are kept apart here. A value given as a limit tells only on which side of the number the result lay.

One data set concerns the target human cytidine deaminase (Homo sapiens, UniProt P32320). The data set can be described thus: Deamination by deoxycytidine deaminase (HPLC analysis). The format is biochemical. To be noted: 37° C., 16 hours. The method, then:
After each time point, 100 μl of acetonitrile were added to the reaction mixture and agitated. The precipitated proteins were removed by centrifugation, and the supernatent was lyophilized to dryness. The samples were reconstituted with 200 μl of HPLC mobile phase buffer and analyzed on an Alltech RP-18 column. […] The mobile phase was 10% acetonitrile/water unless specified otherwise, and the flow rate was 0.8 ml/minutes.

In data set [1] the test system is HBV.
The subject of a further data set is mitochondria DNA. The data set can be described thus: cells. The format is cell-based. Particulars: for IC50: Homo sapiens, CCRF-CEM, CEM cells. The method, then: The CEM cells (5×10^4) cells were collected and freeze-thawed three times. The cell lysate was incubated with RNase (10 μg/ml) at 37° C. for 30 minutes. The sample was treated with proteinase K (100 μg/ml) at 55° C. for 1 hour. A 0.8 volume of supersaturated Nal (2.5 gNaI in 1 ml hot water) was added to the sample and heated at 90° C. for 10 minutes. The DNA was immobilized on nitrocellulose paper by using a slot blot apparatus (Schleicher & Schuell, Keene, NH). The mtDNA on the nitrocellulose paper was detected with a mtDNA specific probe as described previously (Chen, C. H., Cheng, Y. C., “relayed Cytotoxicity and Selective Loss of Mitochondria DNA in Cells Treated with the Anti-Human Immunodeficiency Virus Compound 2′,3′-Dideoxycytidine,” J. Biol. Chem. 264: 11934-11937, 1989).
(§1) Mitochondria DNA content was measured by slot blot hybridization analysis. […] Thus, D4C would be expected to have a mitochondria effect before the anti-HBV effect was achieved as the same phenomenon observed in treatment with ddC.

Another data set relates to CEM cells. Description: CEM growth with dialyzed FBS (cell number on days 2, 4 and 6). Format: cell-based. Particulars: Homo sapiens, CCRF-CEM, RPMI 1640 + 5% dialyzed FBS, cell number versus days in culture, read-out: ID50 (CEM cell growth, toxicity). The method, then:
Six wells were seeded as controls. These wells were untreated. […] The cells were pipetted to break clumps, and then 1 ml was removed from each well and diluted into 9 ml saline. The saline+cells were pipetted well to break clumps and counted via a coutler counter. To determine ID50, cell number was plotted versus days in culture.

Data set [2] deals with HBV. To be noted: 12 days; for chromosomally integrated HBV DNA (amount and restriction enzyme pattern): 2.2.15 cells.
Experimental: Drug-treated cells were lysed with a buffer containing 10 mM Tris pH 7.5, 5 mM EDTA, 150 mM NaCl and 1% SDS. The cell lysate was digested with 100 μg/ml proteinase K at 55° C. for at least 2 hours and deproteinized by extraction with phenol. Nucleic acids were precipitated with 2 volumes of ethanol. The pellet of nucleic acid was redissolved in 10 mM Tris pH 8.0, 1 mM EDTA followed by 100 μg per ml RNase treatment at 37° C. for 1 hour. Concentrated ammonium acetate was added to the aqueous phase to yield a final 0.4 M ammonium acetate solution. The nucleic acids were precipitated with ethanol.
The chromosomally integrated HBV DNA genome and the episomal DNA can be separated in the gel and can be differentially quantified.
The test system of data set [3] is HBV. The data set can be described thus: Northern blot analysis of HBV-specific RNA transcripts in 2.2.15 cells. Format: cell-based, hepatitis B virus. To be noted: 2.0 μM, 12 days. The method, then:
Total cellular RNA was isolated according to Chomczyndki et al. (Chomczynsk, P., and Sacchi, N., “Single Step Method for RNA Isolation by Acid Guanidinium Thiocyanate-Phenol-Chloroform Extraction,” Analytical Biochemistry, 162: 156-159, 1987). The RNA (20 μg per lane) was electrophoresed through 1% agarose gel containing 1.1×formaldehyde and transferred to Hybond-N membrane. The immobilized RNA was hybridized with ^32P-labeled HBV DNA probe and the membrane was autoradiographed as described above.
Northern blot analysis was performed to analyze HBV RNA transcripts. Three major transcripts of approximately 3.5, 2.5, and 2.1 Kb were detected in the total cellular RNA extract.

The subject of data set [4] is CEM (T lymphoblastoid cells) cells. The data set can be described thus: Cytotoxicity in CEM cells (cell number at day 4). Format: cell-based. To be noted: 4 days. The method, then:
CEM (T lymphoblastoid cells) cells were inoculated in 5 ml RPMI 1640 supplemented with 5% fetal bovine serum at a concentration of 2×10^3 cells per ml. The cells were incubated with different concentrations of compounds for 4 days. At day 4, the cell number was determined by a coulter counter or a hemocytometer.
as §1

The mark [5] stands for this setting: read-out: MTID30 (concentration which caused a 50% reduction in mitochondria DNA content).

Chain of human cytidine deaminase (P32320 whole entry): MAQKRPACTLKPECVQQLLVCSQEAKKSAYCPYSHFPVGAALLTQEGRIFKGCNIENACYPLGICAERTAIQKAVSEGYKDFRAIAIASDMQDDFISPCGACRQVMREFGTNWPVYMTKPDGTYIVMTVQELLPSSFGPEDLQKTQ

`Nc1ccn([C@@H]2CS[C@@H](CO)O2)c(=O)n1` [α-3′-Thia-2′,3′-dideoxycytidine]: the “deamination by deoxycytidine deaminase” value on human cytidine deaminase was “no deamination occurred”.

For `Nc1ccn([C@H]2CC[C@@H](CO)O2)c(=O)n1` [ddC, 2′,3′ dideoxycytidine], the IC50 with HBV [1] was 3.8 µM and 3.6 µM; with mitochondria DNA (setting [5]) it was 0.022 µM; with mitochondria DNA (read-out: MtID50), 0.022 µM. Besides, in the data set with HBV [1], the selectivity ratio came out at 2.6.

For orientation: inhibition means how much of the control response was suppressed. Higher therefore signals a response far below the control. Regarding `Nc1ccn([C@H]2CS[C@@H](CO)O2)c(=O)n1` [(+)3′-thia-2′,3′-dideoxycytidine], the “deamination by deoxycytidine deaminase” value on human cytidine deaminase is given as approximately 100%. In the data set on HBV [1], the inhibition is approximately 50%. In addition, the IC50 in the data set with CEM cells was 1.26 µM.

Take `Nc1nc(=O)n([C@H]2CS[C@@H](CO)O2)cc1F` (racemic) [5-fluoro-3′-thia-2′,3′-dideoxycytidine, (±)5-fluoro-3′-thia-2′,3′-dideoxycytidine]: the “chromosomally integrated HBV DNA (amount and restriction enzyme pattern)” value in the data set with HBV [2] was “unaltered”; with HBV [2] (listed as 5-fluoro-3′-thia-2′,3-dideoxycytidine), “not found to affect the integrated HBV DNAs”. In the data set with HBV [2] (different concentrations), the “episomal HBV DNA in 2.2.15 cells” value is “decreased in a dose dependent manner”. Moreover, the results for the IC50 in the data set with HBV [1] and in the data set on mitochondria DNA (setting [5]) were 0.1 µM and more than 200 µM, respectively. The selectivity ratio with HBV [1] was more than 2000. The “effect on mitochondria DNA synthesis” value in the data set with mitochondria DNA is “no effect on mitochondria DNA synthesis was observed”. Besides, the “HBV specific RNA transcripts (3.5, 2.5, 2.1 Kb)” value in the data set with HBV [3] is “not affected at all”.

For `Nc1ccn([C@H]2C=C[C@@H](CO)O2)c(=O)n1` [D4C, 2′,3′-didehydro-2′,3′-dideoxycytidine], the IC50 in the data set on HBV [1] was 2.4 µM; in the data set with mitochondria DNA (setting [5]), 2 µM; with mitochondria DNA (read-out: MtID50), 2 µM. In addition, the selectivity ratio in the data set on HBV [1] was determined as 9.2. The “ED50 (concentration causing 50% reduction in cell number)” value in data set [4] was 22 µM.

`Nc1ccn([C@@H]2CS[C@H](CO)O2)c(=O)n1` [(−)3′-thia-2′,3′-dideoxycytidine]: on human cytidine deaminase, the “deamination by deoxycytidine deaminase” value is recorded as “no sign of deamination at all”.

Turning to `Nc1ccn([C@H]2C[C@H](F)[C@@H](CO)O2)c(=O)n1` [3′-FddC, 3′-fluoro-2′,3′-dideoxycytidine], in the data set with HBV [1], the IC50 turned out to be 1.6 µM and the selectivity ratio is 28.1. The inhibition in the data set on HBV [1] (2 µM) was approximately 50%. In the data set on mitochondria DNA (setting [5]), the IC50 amounted to 0.11 µM. The “ED50 (concentration causing 50% reduction in cell number)” value in data set [4] came to 45 µM.

In the data set with HBV [1], `Nc1ccn(C2COC(CO)O2)c(=O)n1` (single isomer, unassigned; (-)) [(−) OddC, (−)-L-B-dioxolane-cytosine] displayed an IC50 of less than 0.001 µM.
